The values that follow come from patent publication US10940139B2, “Compounds that interact with the Ras superfamily for the treatment of cancers, inflammatory diseases, rasopathies, and fibrotic disease” (Shy Therapeutics LLC, priority 2017, dated 2021).

The structures appear in SMILES notation. Read-outs that look alike come from different tables or passages of the source.

What all share (test): Ras GTP binding domain inhibition assay (labeled GTP)
For assay [1], the target named is KRas G12C/Q61H double mutant (Homo sapiens (Human), UniProt P01116, G12C/Q61H). As to conditions: 20 μM compound. The method, boiled down:
(§1)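 Ni-plate capture of His-KRas (3-10 μg/ml, o/n, 4° C); Tris pH 7.5/MgCl2/DTT buffer, 1% DMSO. Cpd 20 μM or titration, 3 h RT. Cy3/Cy5-GTP 45 min RT, wash, fluorescence of bound GTP.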

Assay [2] deals with KRas G12D/Q61H double mutant (Homo sapiens (Human), UniProt P01116, G12D/Q61H). Conditions: for inhibition at 20 µM: 20 μM compound; for IC50: serial dilution, read-out: KRas G12D Q61H (classes E-H, IC50). The procedure, abridged: as §1
KRas G12D/Q61H double mutant, sequence (P01116-2 other isoform, or with tags, fused parts or gaps G12D/Q61H): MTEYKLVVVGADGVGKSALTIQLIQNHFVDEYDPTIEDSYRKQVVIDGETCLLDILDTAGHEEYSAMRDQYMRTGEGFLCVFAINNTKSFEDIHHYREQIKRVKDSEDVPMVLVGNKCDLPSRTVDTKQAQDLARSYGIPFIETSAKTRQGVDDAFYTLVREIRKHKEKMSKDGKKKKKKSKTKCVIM
For another assay, the target named is KRas Q61H mutant (Homo sapiens (Human), UniProt P01116, Q61H). As to conditions: 20 μM compound. The method, boiled down:
as §1

Where [3] appears, read: read-out: % Inhibition at 20 μM KRas G12C Q61H.
The mark [4] stands for this setting: read-out: % Inhibition at 20 μM KRas G12D Q61H.
[5] abbreviates: read-out: % Inhibition at 20 μM KRas Q61H.
The mark [6] stands for this setting: KRas G12C/Q61H double mutant, read-out: % Inhibition at 20 μM of K-Ras mutant and wild-type protein, KRas G12C Q61H.
Where [7] appears, read: KRas G12D/Q61H double mutant, read-out: % Inhibition at 20 μM of K-Ras mutant and wild-type protein, KRas G12D Q61H.
Setting [8] is: KRas Q61H, read-out: % Inhibition at 20 μM of K-Ras mutant and wild-type protein, KRas Q61H.

KRas G12C/Q61H double mutant, sequence (P01116-2 other isoform, or with tags, fused parts or gaps G12C/Q61H): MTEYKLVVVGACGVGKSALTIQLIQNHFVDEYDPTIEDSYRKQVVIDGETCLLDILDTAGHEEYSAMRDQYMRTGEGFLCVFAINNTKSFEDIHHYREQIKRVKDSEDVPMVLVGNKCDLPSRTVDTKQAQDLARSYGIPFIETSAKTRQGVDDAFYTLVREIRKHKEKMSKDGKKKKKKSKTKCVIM
KRas Q61H mutant, sequence (P01116-2 other isoform, or with tags, fused parts or gaps Q61H): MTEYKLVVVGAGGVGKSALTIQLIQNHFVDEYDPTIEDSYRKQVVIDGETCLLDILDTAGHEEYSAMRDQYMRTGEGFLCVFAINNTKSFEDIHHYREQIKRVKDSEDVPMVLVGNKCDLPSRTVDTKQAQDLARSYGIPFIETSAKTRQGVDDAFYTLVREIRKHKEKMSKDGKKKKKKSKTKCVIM

In the case of `CC(C(=O)Nc1ccnc(-c2ccccn2)n1)c1ccc(C#N)cc1` (centres unmarked) [drawing 2794], the values for the inhibition at 20 µM (in assay [1] (setting [3]); in assay [2] (setting [4]); on KRas Q61H mutant (setting [5])) were 51 to 75%, 1 to 25% and 51 to 75%, respectively.
With `COc1ccccc1C1CN(C(=O)c2csc3c(O)nc(-c4ccccn4)nc23)CCO1` (centres unmarked) [drawing 2767], the results for the inhibition at 20 µM (in assay [1] (setting [3]); in assay [2] (setting [4]); on KRas Q61H mutant (setting [5])) were 51 to 75%, 51 to 75% and 76 to 100%, respectively. The IC50 (in general, the point on the concentration scale where inhibition reaches its midpoint) in assay [2] was 11 to 30 µM.
As to `O=C(c1csc2c(O)nc(-c3ccccn3)nc12)N1CCOC(c2cccc(F)c2)C1` (centres unmarked) [drawing 2732], the figures for the inhibition at 20 µM (in assay [1] (setting [3]); in assay [2] (setting [4]); at KRas Q61H mutant (setting [5])) were 1 to 25%, 25 to 50% and 1 to 25%, respectively.
As for `COc1cnc(C2(N)CCCC2)nc1O` [drawing 3490], the inhibition (as a rule, the drop in the measured response relative to a control, in per cent) at 20 µM in assay [1] (setting [6]) is 1 to 25%; in assay [2] (setting [7]), 1 to 25%; at KRas Q61H mutant (setting [8]), 0%.
On to `COc1ccc2c(c1)CCC2C(=O)Nc1ccnc(-c2ccccn2)n1` (centres unmarked) [drawing 2795], for which the inhibition at 20 µM in assay [1] (setting [3]) lay in the range of 1 to 25%; in assay [2] (setting [4]) it was 1 to 25%; on KRas Q61H mutant (setting [5]) it was 25 to 50%.
Consider `O=C(NCCc1nnn[nH]1)c1csc2nc(-c3ccccn3)nc(N3CCOCC3)c12` [drawing 2786], for which the inhibition at 20 µM in assay [1] (setting [3]) fell in the range of 25 to 50%; in assay [2] (setting [4]) it was 1 to 25%; at KRas Q61H mutant (setting [5]), 51 to 75%.
The matching figures for `Cc1ccccc1C1CN(C(=O)c2csc3c(O)nc(-c4ccccn4)nc23)CCN1` (centres unmarked) [drawing 2775]: 51 to 75%, 25 to 50% and 76 to 100%.
For `COc1cc(OC)cc(N2CCN(C(=O)c3csc4c(O)nc(-c5ccccn5)nc34)CC2)c1` [drawing 2757], the inhibition at 20 µM in assay [1] (setting [3]) was 1 to 25%; in assay [2] (setting [4]), 0%; at KRas Q61H mutant (setting [5]), 1 to 25%.
`O=C(c1csc2c(O)nc(-c3ccccn3)nc12)N1CCN(Cc2cccc(O)c2)CC1` [drawing 2726]: the inhibition at 20 µM (in assay [1] (setting [3]); in assay [2] (setting [4]); at KRas Q61H mutant (setting [5])) was 76 to 100% throughout. Also, in assay [2], the IC50 fell in the range of 11 to 30 µM.
Turning to `N#Cc1ccc2c(c1)CCCC2C(=O)Nc1ccnc(-c2ccccn2)n1` (centres unmarked) [drawing 2855], the inhibition at 20 µM (in assay [1] (setting [3]); in assay [2] (setting [4]); at KRas Q61H mutant (setting [5])) was 51 to 75% throughout.
With `COc1ccc(C2CN(C(=O)c3csc4c(O)nc(-c5ccccn5)nc34)CCN2)cc1` (centres unmarked) [drawing 2774], the inhibition at 20 µM in assay [1] (setting [3]) lay within 76 to 100%; in assay [2] (setting [4]) it was 1 to 25%; on KRas Q61H mutant (setting [5]), 76 to 100%.
As for `COCC(C)Nc1nc(-c2ccccn2)nc(C(=O)NCCCc2c[nH]cn2)c1Oc1ccccc1` (centres unmarked) [drawing 3550], the inhibition at 20 µM (in assay [1] (setting [6]); in assay [2] (setting [7]); at KRas Q61H mutant (setting [8])) was 1 to 25% each time.
As to `Oc1nc(-c2ccccn2)nc2c(-c3ccc(OC4CCOCC4)cc3)csc12` [drawing 2867], the inhibition at 20 µM (in assay [1] (setting [3]); in assay [2] (setting [4]); at KRas Q61H mutant (setting [5])) was 25 to 50% each time.
For the compound `O=C(NCCc1ccnc(O)c1)c1csc2nc(-c3ccccn3)nc(N3CCOCC3)c12` [drawing 2783], the inhibition at 20 µM (in assay [1] (setting [3]); in assay [2] (setting [4]); on KRas Q61H mutant (setting [5])) was 1 to 25% each time.
As for `COc1nccc(CCNC(=O)c2csc3nc(-c4ccccn4)nc(N4CCOCC4)c23)n1` [drawing 2897], the inhibition at 20 µM in assay [1] (setting [3]) was in the range of 25 to 50%; in assay [2] (setting [4]), 1 to 25%; on KRas Q61H mutant (setting [5]), 25 to 50%.
`Cn1cnc(-c2nc(O)c3c(-c4ccccc4)c(-c4ccncc4)sc3n2)c1` [drawing 3528]: the inhibition at 20 µM (in assay [1] (setting [6]); in assay [2] (setting [7]); on KRas Q61H mutant (setting [8])) was 1 to 25% throughout.
As to `Oc1nc(-c2ccccn2)nc2c(-c3cncnc3)csc12` [drawing 3504], the values for the inhibition at 20 µM (in assay [1] (setting [6]); in assay [2] (setting [7]); on KRas Q61H mutant (setting [8])) were 1 to 25%, 1 to 25% and 25 to 50%, respectively.
